From patent US20190127381A1, “SUBSTITUTED FUSED PYRIMIDINONE COMPOUNDS” (TORRENT PHARMACEUTICALS LIMITED, priority 2016, published 2019) come the findings set out here.

Experiment [1] deals with T1, purified recombinant human PI3K enzyme δ (Homo sapiens, UniProt O00329).
T1 construct: purchased Invitrogen, USA
Briefly: Inhibition of PI3-Kinase enzymatic activity (HTRF enzyme assay), δ. The class given is biochemical. The note with it: 1 μM compound; PI3K δ 50 ng/well; PIP2 10 μM; ATP 200 μM; read-out: Percentage inhibition of PI3K activity, δ. The procedure, abridged:
(§1)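 HTRF assay with compound at 1 μM (1.0% DMSO), recombinant human PI3Kδ (50 ng/well) or γ (100 ng/well) and PIP2 (10 μM), preincubated 15 min at room temperature. ATP (δ 200 μM, γ 50 μM) was then added for 30 min at room temperature. Percent inhibition was derived from the 665/615 nm signal ratio.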
(TR-FRET usually uses a lanthanide donor and a delayed reading to cut background.)

Experiment [2] has as its target T2, purified recombinant human PI3K enzyme γ (Homo sapiens, UniProt P48736).
T2 construct: purchased Invitrogen, USA
Briefly: Inhibition of PI3-Kinase enzymatic activity (HTRF enzyme assay), γ. The class given is biochemical. The note with it: 1 μM compound; PI3K γ 100 ng/well; PIP2 10 μM; ATP 50 μM; read-out: Percentage inhibition of PI3K activity, γ. The procedure, abridged: as §1

Experiment [3] has as its system cigarette smoke induced Neutrophil accumulation in BAL Fluid. Briefly: Acute guinea pig model of airway inflammation (tobacco smoke, COPD). The class given is in vivo. The note with it: for % Inhibition of neutrophil against vehicle group: exposure 56 minutes; for Neutrophil (*10^6 cells/animal) in BAL fluid: whole body aerosol exposure 56 minutes, day 6 to day 11, Mean ± SEM. An excerpt:
The tobacco smoke induced airway inflammation model is used for in vivo efficacy of compound. Many investigators have used acute tobacco smoke (TS) exposure in rodents as models of airway inflammation for quick screening of anti-inflammatory therapies for COPD (J Pharmacol Exp Ther. 2008; 324(3):921-9; J Pharmacol Exp Ther. 2010; 332(3):764-75; Journal of Inflammation 2013, 10(Suppl 1):31 and Eur Respir J Suppl 2006; 663s:3850). Given its position as predominant cause of COPD, animal models using TS exposure would appear to be the logical choice for investigation (Respir Res. 2004; 2;5:18).
Guinea pigs were exposed to tobacco smoke (TS) in an acrylic chamber. Animals were exposed to TS from 5, 10, 15 cigarettes on day 1, day 2, day 3 respectively. From day 4 onwards till day 11, animals were exposed to TS from 15 cigarettes per day. On 11 days of exposure of guinea pig to TS, significant inflammatory cell recruitment, predominantly neutrophils, to lungs was observed as compared to air exposed control guinea pig (BALF neutrophil levels, 0.59±0.15*10^6 cells/animal in air control group vs 8.3±1.4*10^6cells/animal in smoke exposed vehicle group)
Lung delivery of test compound was achieved by whole body aerosol exposure using nebulizer for 56 minutes in a chamber. Guinea pig were divided in different dose groups and exposed in a chamber for 56 minutes with vehicle or Compound No. 39 (1 mg/ml or 3 mg/ml). A total quantity of 6.0 ml of either vehicle or test compound formulation was nebulized in chambers to respective groups over 56 mins period. Test compound was administered 2 hr prior to TS exposure from day 6 to day 11. Bronchoalveolar lavage (BAL) was performed 24 hr post last TS exposure.
Trachea of animal was cannulated using catheter. Phosphate Buffer Saline (PBS) was used as lavage fluid. A volume of 5.0 ml was gently instilled and withdrawn and collected in microcentrifuge tube placed on ice. This procedure was repeated further 5 times.
Lavage fluid was separated from cells by centrifugation and supernatant separated. The cell pallet was resuspended in known volume of PBS. Cells in aliquot were stained using Turk solution and total cell numbers were calculated by counting Turk stained aliquot under microscope using haemocytometer.
The residual cell suspension was resuspended and slides prepared using cyto centrifuge technique (Cytospin 4, Thermo Shandon). […] Up to 300 cells were counted and differentiated using standard morphometric techniques under light microscopy.
All results are presented at individual data for each animal and mean value calculated for each group. Percentage inhibition for the neutrophil was calculated for Compound No 39 treatment group against vehicle group.

T1 sequence (O00329 whole entry): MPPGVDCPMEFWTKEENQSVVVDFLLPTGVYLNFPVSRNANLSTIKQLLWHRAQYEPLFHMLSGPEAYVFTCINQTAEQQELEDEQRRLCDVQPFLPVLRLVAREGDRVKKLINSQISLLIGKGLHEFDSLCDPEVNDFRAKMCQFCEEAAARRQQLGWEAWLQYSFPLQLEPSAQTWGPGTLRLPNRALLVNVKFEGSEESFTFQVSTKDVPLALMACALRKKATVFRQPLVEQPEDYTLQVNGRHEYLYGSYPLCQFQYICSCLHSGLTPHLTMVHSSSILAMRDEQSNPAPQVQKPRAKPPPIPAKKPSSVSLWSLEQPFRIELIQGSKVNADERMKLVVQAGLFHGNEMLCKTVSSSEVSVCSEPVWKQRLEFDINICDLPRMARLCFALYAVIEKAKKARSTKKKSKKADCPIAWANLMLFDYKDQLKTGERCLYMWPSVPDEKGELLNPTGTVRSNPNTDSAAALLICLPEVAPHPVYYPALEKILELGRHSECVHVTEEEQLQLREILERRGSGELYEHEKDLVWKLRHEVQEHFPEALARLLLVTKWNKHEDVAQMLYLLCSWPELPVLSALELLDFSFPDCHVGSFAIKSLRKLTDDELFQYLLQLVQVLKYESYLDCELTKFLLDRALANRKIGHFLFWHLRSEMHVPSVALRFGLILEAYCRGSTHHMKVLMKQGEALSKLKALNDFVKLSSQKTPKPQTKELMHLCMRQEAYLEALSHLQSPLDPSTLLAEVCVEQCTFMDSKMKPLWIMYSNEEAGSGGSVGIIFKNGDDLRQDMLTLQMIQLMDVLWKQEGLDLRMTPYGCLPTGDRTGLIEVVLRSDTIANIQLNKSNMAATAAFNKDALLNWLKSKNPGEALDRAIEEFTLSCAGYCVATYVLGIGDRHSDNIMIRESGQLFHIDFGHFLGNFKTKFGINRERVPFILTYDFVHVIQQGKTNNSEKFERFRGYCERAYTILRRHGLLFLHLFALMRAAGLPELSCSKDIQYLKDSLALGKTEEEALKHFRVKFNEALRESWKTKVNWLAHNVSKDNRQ
T1 sequence (P27986 whole entry partner): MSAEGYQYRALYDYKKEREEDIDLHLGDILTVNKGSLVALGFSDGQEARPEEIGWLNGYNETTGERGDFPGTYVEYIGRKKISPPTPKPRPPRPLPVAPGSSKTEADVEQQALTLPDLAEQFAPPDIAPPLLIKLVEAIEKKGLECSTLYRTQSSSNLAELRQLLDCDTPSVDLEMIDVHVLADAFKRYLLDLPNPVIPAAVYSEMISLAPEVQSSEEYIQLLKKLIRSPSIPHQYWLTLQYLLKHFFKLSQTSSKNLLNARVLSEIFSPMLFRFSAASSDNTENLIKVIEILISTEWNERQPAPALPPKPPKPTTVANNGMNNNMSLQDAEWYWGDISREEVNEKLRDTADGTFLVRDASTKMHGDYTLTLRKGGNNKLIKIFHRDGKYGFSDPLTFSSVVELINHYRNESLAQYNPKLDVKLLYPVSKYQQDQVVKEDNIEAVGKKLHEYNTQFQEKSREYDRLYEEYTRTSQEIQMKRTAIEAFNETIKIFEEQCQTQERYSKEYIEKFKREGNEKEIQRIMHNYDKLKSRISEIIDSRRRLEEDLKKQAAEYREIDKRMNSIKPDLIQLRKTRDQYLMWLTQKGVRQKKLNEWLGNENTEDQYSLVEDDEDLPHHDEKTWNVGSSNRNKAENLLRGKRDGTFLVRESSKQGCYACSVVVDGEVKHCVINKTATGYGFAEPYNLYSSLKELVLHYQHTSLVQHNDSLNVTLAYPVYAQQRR
T2 sequence (P48736 whole entry): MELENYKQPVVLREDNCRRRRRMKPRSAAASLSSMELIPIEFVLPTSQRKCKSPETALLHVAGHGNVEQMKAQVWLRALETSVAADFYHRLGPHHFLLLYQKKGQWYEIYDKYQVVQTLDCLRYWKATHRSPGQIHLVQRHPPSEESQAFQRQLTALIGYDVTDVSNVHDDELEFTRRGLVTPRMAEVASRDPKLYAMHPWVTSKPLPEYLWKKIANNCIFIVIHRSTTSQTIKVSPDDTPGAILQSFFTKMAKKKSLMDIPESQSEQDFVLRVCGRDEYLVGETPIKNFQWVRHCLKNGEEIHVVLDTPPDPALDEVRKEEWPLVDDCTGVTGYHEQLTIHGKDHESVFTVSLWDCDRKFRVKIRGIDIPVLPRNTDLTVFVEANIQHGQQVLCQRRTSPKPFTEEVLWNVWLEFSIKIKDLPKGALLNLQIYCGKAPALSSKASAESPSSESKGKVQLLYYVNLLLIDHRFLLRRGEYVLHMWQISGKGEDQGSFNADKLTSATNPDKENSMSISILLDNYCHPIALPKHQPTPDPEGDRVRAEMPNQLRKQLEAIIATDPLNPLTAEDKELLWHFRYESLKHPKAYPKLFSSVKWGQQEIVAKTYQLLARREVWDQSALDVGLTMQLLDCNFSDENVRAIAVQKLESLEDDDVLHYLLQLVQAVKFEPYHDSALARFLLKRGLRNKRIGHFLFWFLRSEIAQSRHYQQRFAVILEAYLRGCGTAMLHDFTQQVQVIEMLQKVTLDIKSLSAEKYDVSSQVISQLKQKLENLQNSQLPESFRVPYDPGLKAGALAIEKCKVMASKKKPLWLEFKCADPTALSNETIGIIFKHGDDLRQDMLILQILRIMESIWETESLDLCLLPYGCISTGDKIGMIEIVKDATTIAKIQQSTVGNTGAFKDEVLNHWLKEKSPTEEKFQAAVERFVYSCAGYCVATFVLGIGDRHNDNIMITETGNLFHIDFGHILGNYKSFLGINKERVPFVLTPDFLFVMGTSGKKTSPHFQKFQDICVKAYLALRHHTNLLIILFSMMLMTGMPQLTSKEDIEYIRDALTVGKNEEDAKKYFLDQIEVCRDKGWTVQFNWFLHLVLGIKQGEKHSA

On to `Cc1cccc2nc(Cn3nc(-c4ccc(O)c5c4CC(C)(C)O5)c4c(N)ncnc43)n(-n3c(C)ccc3C)c(=O)c12` [Compound No. 39, 2-{[4-amino-3-(7-hydroxy-2,2-dimethyl-2,3-dihydro-1-benzofuran-4-yl)-1H-pyrazolo[3,4-d]pyrimidin-1-yl]methyl}-3-(2,5-dimethyl-1H-pyrrol-1-yl)-5-methylquinazolin-4(3H)-one], for which the inhibition at 1 µM in experiment [1] and in experiment [2] was 80 to 100% in each case. Further, the “% Inhibition of neutrophil against vehicle group” value in experiment [3] (1 mg/ml nebulized) amounted to 22%; in experiment [3] (3 mg/ml nebulized) it was 68%. The “Neutrophil (*10^6 cells/animal) in BAL fluid” value is on record as 6.5 ± 3.2 *10^6 cells/animal in experiment [3] (1 mg/ml nebulized) and 2.7 ± 1.4 *10^6 cells/animal in experiment [3] (3 mg/ml nebulized).
